From publication PMC3812073, “Partial Deletion of Chromosome 8 β-defensin Cluster Confers Sperm Dysfunction and Infertility in Male Mice” (PLoS Genetics, 2013)
No end group written: not given here.

What was measured:
wild-type cauda sperm [1] = test: A23187-induced acrosome reaction of wild-type sperm, Coomassie G250 stain; format: cell-based, mouse; settings: wild-type (+/+) sperm treated with A23187, T90 minutes, 157 of 293 sperm, untreated control 14%
Procedure: (§1) We treated sperm from wild-type littermates (+/+) with A23187 to release calcium and induce AR, and examined their ultrastructure by TEM at the T90 minutes time point (Figure S4).
Cauda sperm were isolated in modified Tyrode's medium, fixed in 4% formalin for 15 mins. Sperm were spun down (1000× g 5 mins) then washed once in 0.1 M ammonium acetate (pH 9.0) and resuspended in a final volume of approximately 50 µl. An aliquot of 20 µl was smeared on glass slide, allowed to air dry then stained for 2 mins with a solution of 0.22% Coomassie blue G250 (wt/v) in 50% methanol (v/v) and 10% acetic acid (v/v). Slides were washed 3 times in distilled water, air-dried and mounted in glycerol. Acrosome integrity of at least 150 sperm per animal was assessed by the presence or absence of an intense blue stain on the anterior sperm head (mean ± SD; n = 3 pairs).

wild-type cauda sperm [2] = test: TEM of microtubule structure in tails of A23187-treated wild-type sperm; format: cell-based, mouse; settings: wild-type cauda sperm treated with A23187 (1 µM in the Figure S4 legend), T90 minutes, 101/195 tails in focus, control 3%
Procedure: as §1
Epididymides and decapsulated testis were fixed with 2% paraformaldehyde (PFA), 2.5% glutaraldehyde in 0.1M sodium cacodylate buffer + 0.04% CaCl2 for 30 mins at room temperature. The tissues were cut roughly into 1 mm cubes and further fixed overnight at 4°C. Fixed cells were rinsed in 0.1M sodium cacodylate buffer + 0.4% CaCl2, post-fixed in 1% osmium tetroxide (OsO4, Agar Scientific) for one hour, and dehydrated in sequential steps of acetone (25%, 50%, 75% and 100% twice) prior to impregnation in increasing concentrations (25%, 50%, 75%) of resin (TAAB Lab Equipment) in acetone followed by 100% resin for 3 times, placed in moulds and polymerised at 60°C for 24 hrs. Ultrathin sections of 70 nm were subsequently cut using a diamond knife on a Leica EM UC7 ultramicrotome. Sections were stretched with chloroform to eliminate compression and mounted on Pioloform filmed copper grids prior to staining with 1% aqueous uranyl acetate and lead citrate (Leica). They were viewed on a Philips CM100 Compustage (FEI) Transmission Electron Microscope with images collected using an AMT CCD camera (Deben). […]

sperm = settings: 10 µM A23187; cited from earlier work
Source text: We sought to understand why sperm from the DefbΔ9/DefbΔ9 have this precocious capacitation and increased spontaneous AR. Sperm require an increase in intracellular calcium, which causes hyperactivation and allows progression to the AR. Mice deleted for any of the components of the calcium CatSper (cation channels of sperm) channel are infertile due to their lack of ability to transport calcium into the cell, resulting in an inability to undergo capacitation, hyperactivation and prepare sperm for the AR [32]. Conversely, sperm exposed to a ten-fold increase in cauda epididymal calcium concent ...

[3] = system: Pseudomonas aeruginosa O1 (PAO1); test: Antimicrobial killing of Pseudomonas aeruginosa PAO1 by synthetic mature β-defensin peptides; format: cell-based; settings: for bacterial killing after TCEP reduction: reduced peptide (TCEP), 50 µg/ml peptide, PAO1, 3 hours, compared with oxidised form
Source text: The DefbΔ9/DefbΔ9 mice homozygous for the deletion have no obvious gross phenotype compared to littermate controls after 8 generations of backcrossing to C57Bl/6. No change in size, weight or appearance is apparent, except mice carrying the mutant allele have paler tails by virtue of the Agouti transgene included in the MICER vector (data not shown). β-defensins are classically known as antimicrobial peptides, so we tested the mature peptides in vitro against a Gram-negative bacterium (Pseudomonas aeruginosa, PAO1). […] Despite deleting the expression of these antimicrobials from the homozygous mice, there is no indication that the mutant mice have an increased inflammatory profile under normal animal housing conditions. There is no elevation in levels of TNF-α or IL-6 or type I interferon in sera from mutant versus wild-type mice (Figure 1D).
Supplementary file pgen.1003826.s003.tif: Figure S3 Level of antimicrobial killing against Pseudomonas aeruginosa O1 (PAO1) by the reduced and oxidized peptides. β-defensins with the mature peptide sequences (as shown in Table 1) were purchased from Almac Sciences (Scotland) Limited in an oxidised form. They were tested for their ability to kill PAO1 in 3 hours at various concentrations of peptide. […] TCEP alone had no effect on bacterial survival (data not shown). […] (TIF) Click here for additional data file.

Which acrosome reacted sperm (wild-type cauda sperm [1]) does the source give for `CNc1ccc2oc(C[C@H]3O[C@@]4(CC[C@H]3C)O[C@H]([C@H](C)C(=O)c3ccc[nH]3)[C@H](C)C[C@H]4C)nc2c1C(=O)O` [A23187] here?
The acrosome reacted sperm was 53%.

And the “sperm with microtubule disruption (abnormal tail score)” value (wild-type cauda sperm [2])?
The value was 52%.

And the acrosome reaction (sperm)?
Its acrosome reaction is “will undergo the AR”.

What about the sperm motility (sperm) of the same compound?
Its sperm motility is “immotile”.

For `O=C(O)CCP(CCC(=O)O)CCC(=O)O` [TCEP, Tris (2-carboxyethyl) phosphine], which “effect on bacterial survival” value ([3]; TCEP alone, without peptide, data not shown) is on record?
Its value is “no effect”.

With “FDEKCSRVNGRCTAS-CLKNEELVALC-QKNLKCCVTVQPCGKSKSNQSDEGSGHMGTWG (disulfide) [Defb15, mature synthetic mouse β-defensin peptide]” as the compound, how does the “bacterial killing after TCEP reduction” value [3] read?
The value was “unremarkable”.

With “HPGTFHVRIKCMPKMTAVFGDNCSFYSSMGDLCNNTKSVCCMVPVRMDNI (disulfide (positions not given here)) [Defb50, mature synthetic mouse β-defensin peptide, missing the second cysteine of the motif]” as the compound, how does the “antimicrobial activity in either oxidised or reduced form” value ([3]; PAO1, Figure S3) read?
The value was “active antimicrobials”.

And the “antimicrobial activity, oxidised form” value ([3]; oxidised peptide, PAO1, Figure S3)?
Its value is “poor antimicrobial activity”.

And the “bacterial killing after TCEP reduction” value [3]?
The value was “improves”.
